Patent US7714014B2, “Targeting GLI proteins in human cancer by small molecules” (The Regents of the University of California, priority 2005, dated 2010)
Entries after “also recorded” stand apart in the source; their conditions may differ.

What was measured:
SW480 (colon cancer) = test: Apoptosis analysis (Annexin V FITC, flow cytometry); assay type: cell-based, human; conditions: 3 days
Protocol: (§1) Apoptosis was analyzed by using an Annexin V FITC Apoptosis Detection Kit (Biosource, Camarillo, Calif.), according to the manufacturer's protocol. After treatment with different small molecule compounds at various concentrations for about 3 days, cells were harvested by trypsinization, stained and immediately analyzed by flow cytometry (FACScan; Decton Dickinson, Franklin Lake, N.J.). Early apoptotic cells with exposed phosphatidylserine but intact cell membranes will bind to Annexin V-FITC, but not propidium iodide (PI). Cells in necrotic or late apoptotic stages will be labeled with both Annexin V-FITC and PI. “% apoptotic cells” or “% apoptosis” refers to the combined early and late apoptotic cells.
Flow cytometry was used to examine apoptosis in colon cancer cells after treatment of cells with small molecule compounds of the invention.

[1] = tested on: cytosolic β-catenin in melanoma cell lines A375 and SK-Mel-5; test: Western blot of cytosolic β-catenin; assay type: cell-based, human; conditions: 10 μM or 20 μM
Protocol: […] Protein concentrations were measured using Bio-Rad Protein Assay reagent. Whole cell lysate protein (5-20 ug) were boiled for 5 min and separated by 10-20% SDS-PAGE. Proteins were transferred to an Immobilon-P membrane (Millipore Corp., Bedford, Mass.) using semi-dry transfer cell (Bio-Rad; Benicia, Calif.). The membranes were blocked with 5% nonfat milk powder and 0.1% Tween 20 in Tris-buffer saline overnight at 4° C. and then incubated with primary antibody for 1 h at room temperature. Membranes were washed in 5% nonfat milk powder and 0.1% Tween 20 in Tris-buffer saline for three 10-min periods. Horseradish peroxidase-conjugated goat anti-rabbit or donkey anti-mouse antibodies were used as secondary antibodies. Proteins were visualized with chemiluminescence luminol reagents (Santa Cruz Bio-technology). Anti-Dvl-3, and anti-Survivin, antibodies were from Santa Cruz Biotechnology (Santa Cruz, Calif.). Anti-Caspase3 antibody was from Oncogene (Cambridge, Mass.). Anti-β-Actin antibody was from Sigrna-Aldrich Corp. (St. Louis, Mo.). Anti-β-catenin antibody was from Transduction Laboratories (Lexington, Ky.). Anti-Cytochrome c antibody was from BD Biosciences (San Diego, Calif.). For detecting alteration of β-catenin cytosolic extracts were prepared and examined as described previously in the publications from our lab. […]

Melanoma LOX tumor = test: Mouse Xenograft Model (Melanoma LOX); assay type: in vivo; conditions: 50 mg/kg i.p. daily for 2×6 days
Protocol: (§2) The small molecule compound FN1-8 was tested in vivo in the mouse xenograft model bearing human cancer cells. Briefly, female athymic nude mice strain NCRNU-M (5-10 weeks old, 20-25 grams in weight; Taconic, Germantown, N.Y.) was maintained in pathogen-free conditions. Three human cancer cell lines: NSCLC H460, melanoma LOX, (both showing Gli3 activation), and colon cancer HT29 (no Gli3 activation, as a negative control), were used. Ten mice were used in each group and injected s.c. with 3×10^6 cancer cells in the dorsal area in a volume of 100 μl. After inoculation, human cancer cells were allowed to grow in mice for 7 days to become visible tumor nodules. Animals were then injected with small molecule compound FN1-8 at a dose of 50 mg/kg body weight (1 mg/mouse per day). DMSO alone was used as control. […] Tumor size was measured every three days, and tumor volumes were calculated using width (x) and length (y) (x^2y/2, where x<y). […]
In vivo efficacy study of small molecule compound FN1-8 were performed using a Mouse Xenograft Model (Melanoma Lox). […] Tumor size and tumor volumes were calculated as described above.
Three weeks after the initial tumor inoculation and the treatment as described above, tumors were dissected from the mice of each group and their weights were measured using a scale.

NSCLC A549 tumor = test: Mouse Xenograft Model (NSCLC A549); assay type: in vivo; conditions: 15 mg/kg daily 2×6 days then 30 mg/kg daily 1×6 days i.p.; 43 days after inoculation
Protocol: as §2, with “control. The compounds and controls were adjusted in 40 ul volume for i.p. injection in the abdomens of the mice. One mouse was sacrificed within 1 hour after the compound injection (after 6 injections) and its blood was collected.” for “control.”
In vivo efficacy study ofFN1-8 in Mouse Xenograft Model (NSCLC A549) was also examined. […] 43 days after the initial tumor inoculation, tumors were dissected from the mice of each group and their weights were measured using a scale. […]

H358 (NSCLC) = test: Apoptosis analysis (Annexin V FITC, flow cytometry); assay type: cell-based, human; conditions: 3 days
Protocol: as §1
Dose titration experiments of small molecule compound FN1-8 was performed using the NSCLC cell lines A549, H358, and H322. A 549, H358, and H322 cells were plated in 6-well plates and incubated with DM SO (control) or 7.5 μM, 10 μM, 15 μM, 20 μM, and 30 μM of FN1-8, respectively, for 3 days. A dramatic and dose-dependent cell killing in these cell lines was observed when FN1-8 was added at 15 μM or more. FN1-8 induced cell killing in A549 and […] at slightly lower concentrations than in H322 cells (data not shown). After 3 days, approximately 28% of the A549 cells and 58% of H358 underwent apoptosis when incubated with 20 μM FN1-8 (Table 3).

For O=C(NCCCCCO)C1C(c2ccccc2)=NN(c2ccccc2)C1c1ccccc1 (centres unmarked) [FN1-5, N-(5-Hydroxypentyl)-1,3,5-triphenyl-4,5-dihydro-pyrazole-4-carboxyamide], the “% of apoptotic cells” value (SW480 (colon cancer); SW480, 10 μM) was 10.8% and the “% of apoptotic cells” value (SW480 (colon cancer); SW480, 100 μM) was 58.6%.

In the case of O=C(NCCc1ccc(O)cc1)C1C(c2ccccc2)=NN(c2ccccc2)C1c1ccccc1 (centres unmarked) [FN1-8, N-(2-(4-Hydroxyphenyl)ethyl)-1,3,5-triphenyl-4,5-dihydro-pyrazole-4-carboxyamide], the “cytosolic β-catenin level” value [1] is reported as “down-regulated”, the tumor growth (Melanoma LOX tumor) is reported as “dramatically suppressed; also recorded: significantly suppressed” and the tumor weight (Melanoma LOX tumor; three weeks after inoculation) is reported as “dramatically decreased”. The tumor weight (NSCLC A549 tumor) was “decreased”, the “% of apoptotic cells” value (H358 (NSCLC); H358, 10 μM) was 15.2% and the “% of apoptotic cells” value (H358 (NSCLC); H358, 20 μM) was 58.1%.
